Assay results reported in PubChem BioAssay (NCI).
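In this assay, cells in 96-well plates receive the compound at five concentrations for 48 hours. Endpoints are linearly interpolated between the surrounding concentrations. GI50 is the concentration that inhibits growth by half. At the TGI there is no net growth.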

Experiments:
Assay in all cases: NCI tumour cell line growth inhibition, 48 h
[1] = test system: MALME-3M melanoma
[2] = test system: MCF7 breast
[3] = test system: BT-549 breast
[4] = test system: NCI/ADR-RES ovarian
[5] = test system: OVCAR-5 ovarian
[6] = test system: SR leukemia
[7] = test system: SNB-19 CNS
[8] = test system: TK-10 renal
[9] = test system: SK-OV-3 ovarian
[10] = test system: NCI-H23 lung
[11] = test system: U251 CNS
[12] = test system: UACC-257 melanoma
[13] = test system: OVCAR-4 ovarian
[14] = test system: RXF 393 renal
[15] = test system: EKVX NSCLC
[16] = test system: IGROV1 ovarian
[17] = test system: SK-MEL-5 melanoma
[18] = test system: PC-3 prostate
[19] = test system: HOP-92 NSCLC
[20] = test system: SF-539 CNS
[21] = test system: HCT-15 colon
[22] = test system: HS 578T breast
[23] = test system: SN12C renal
[24] = test system: COLO 205 colon
[25] = test system: NCI-H226 lung
[26] = test system: HOP-62 NSCLC
[27] = test system: NCI-H460 lung
[28] = test system: HT29 colon
[29] = test system: HL-60(TB) leukemia
[30] = test system: HCT-116 colon
[31] = test system: MDA-MB-231 breast
[32] = test system: MOLT-4 leukemia
[33] = test system: OVCAR-8 ovarian
[34] = test system: ACHN renal
[35] = test system: K-562 leukemia
[36] = test system: A498 renal
[37] = test system: CCRF-CEM leukemia
[38] = test system: SW-620 colon
[39] = test system: 786-0 renal
[40] = test system: KM12 colon
[41] = test system: LOX IMVI melanoma
[42] = test system: M14 melanoma
[43] = test system: HCC-2998 colon
[44] = test system: CAKI-1 renal
[45] = test system: SK-MEL-2 melanoma
[46] = test system: SF-295 CNS
[47] = test system: SNB-75 CNS
[48] = test system: MDA-MB-435
[49] = test system: SK-MEL-28 melanoma
[50] = test system: T-47D breast
[51] = test system: OVCAR-3 ovarian
[52] = test system: SF-268 CNS
[53] = test system: UACC-62 melanoma
[54] = test system: A549 NSCLC
[55] = test system: RPMI-8226 leukemia
[56] = test system: NCI-H522 lung
[57] = test system: DU-145 prostate

NC(N)=NCCN1CCCCCc2ccccc21
TGI [1]: > 10 µM | TGI [2]: > 10 µM | TGI [3]: > 10 µM | TGI [4]: > 10 µM | TGI [5]: > 10 µM | TGI [6]: > 10 µM | TGI [7]: > 10 µM | TGI [8]: > 10 µM | TGI [9]: > 10 µM | TGI [10]: > 10 µM | TGI [11]: > 10 µM | TGI [12]: > 10 µM | TGI [13]: > 10 µM | TGI [14]: > 10 µM | TGI [15]: > 10 µM | TGI [16]: > 10 µM | TGI [17]: > 10 µM | TGI [18]: > 10 µM | TGI [19]: > 10 µM | TGI [20]: > 10 µM | TGI [21]: > 10 µM | TGI [22]: > 10 µM | TGI [23]: > 10 µM | TGI [24]: > 10 µM | TGI [25]: > 10 µM | TGI [26]: > 10 µM | TGI [27]: > 10 µM | TGI [28]: > 10 µM | TGI [29]: > 10 µM | TGI [30]: > 10 µM | TGI [31]: > 10 µM | TGI [32]: > 10 µM | TGI [33]: > 10 µM | TGI [34]: > 10 µM | TGI [35]: > 10 µM | TGI [36]: > 10 µM | TGI [37]: > 10 µM | TGI [38]: > 10 µM | TGI [39]: > 10 µM | TGI [40]: > 10 µM | TGI [41]: > 10 µM | TGI [42]: > 10 µM | TGI [43]: > 10 µM | TGI [44]: > 10 µM | TGI [45]: > 10 µM | TGI [46]: > 10 µM | TGI [47]: > 10 µM | TGI [48]: > 10 µM | TGI [49]: > 10 µM | TGI [50]: > 10 µM | TGI [51]: > 10 µM | TGI [52]: > 10 µM | TGI [53]: > 10 µM | TGI [54]: > 10 µM | TGI [55]: > 10 µM | TGI [56]: > 10 µM | TGI [57]: > 10 µM

COc1cc2c(cc1OCCCCCN1CCN(CCCCCOc3cc4c(cc3OC)C(=O)C3CCC[C@H]3C=N4)CC1)N=C[C@@H]1CCCC1C2=O (some centres not stated)
GI50 [1]: 23 µM | TGI [1]: 47.7 µM | GI50 [2]: 2.72 µM | TGI [2]: > 100 µM | GI50 [3]: 10.9 µM | TGI [3]: > 86.8 µM | GI50 [4]: > 100 µM | TGI [4]: > 100 µM | GI50 [5]: 5.52 µM | TGI [5]: > 54.1 µM | GI50 [6]: 2.97 µM | TGI [6]: 39.6 µM | GI50 [7]: > 39.4 µM | TGI [7]: > 100 µM | GI50 [8]: 5.05 µM | TGI [8]: 14.6 µM | GI50 [9]: 43.2 µM | TGI [9]: > 100 µM | GI50 [10]: 3.72 µM | TGI [10]: > 21.1 µM | GI50 [11]: 3.74 µM | TGI [11]: > 100 µM | GI50 [12]: 9.73 µM | TGI [12]: > 46 µM | GI50 [13]: 42 µM | TGI [13]: > 100 µM | GI50 [14]: 2.23 µM | TGI [14]: 7.11 µM | GI50 [15]: 41.3 µM | TGI [15]: > 100 µM | GI50 [16]: 3.88 µM | TGI [16]: > 25 µM | GI50 [17]: 3.34 µM | TGI [17]: 21.6 µM | GI50 [18]: 3.16 µM | TGI [18]: > 100 µM | GI50 [19]: 3.22 µM | TGI [19]: > 42.6 µM | GI50 [20]: 9.82 µM | TGI [20]: > 79 µM | GI50 [21]: 52.9 µM | TGI [21]: > 100 µM | GI50 [22]: 5.63 µM | TGI [22]: > 68.7 µM | GI50 [24]: 2.67 µM | TGI [24]: 11.3 µM | GI50 [25]: 4.8 µM | TGI [25]: > 74.3 µM | GI50 [26]: > 100 µM | TGI [26]: > 100 µM | GI50 [27]: 3.38 µM | TGI [27]: > 94.2 µM | GI50 [28]: 9.47 µM | TGI [28]: > 100 µM | GI50 [29]: 2.83 µM | TGI [29]: 7.15 µM | GI50 [31]: 3.84 µM | TGI [31]: > 100 µM | GI50 [32]: 2.55 µM | TGI [32]: 7 µM | GI50 [33]: 7.89 µM | TGI [33]: > 37 µM | GI50 [34]: 18.9 µM | TGI [34]: > 100 µM | GI50 [35]: 6.51 µM | TGI [35]: 28.4 µM | GI50 [36]: 2.07 µM | TGI [36]: 5.48 µM | GI50 [37]: 3.06 µM | TGI [37]: > 48.7 µM | GI50 [38]: 2.51 µM | TGI [38]: 46.6 µM | GI50 [39]: 1.51 µM | TGI [39]: 4.64 µM | GI50 [40]: 13.9 µM | TGI [40]: > 100 µM | GI50 [41]: 3.07 µM | TGI [41]: > 100 µM | GI50 [42]: 17.5 µM | TGI [42]: 80.9 µM | GI50 [43]: 2.18 µM | TGI [43]: 6.02 µM | GI50 [44]: 27.5 µM | TGI [44]: > 81.4 µM | GI50 [45]: 2.2 µM | TGI [45]: 5.26 µM | GI50 [46]: 6.19 µM | TGI [46]: > 100 µM | GI50 [47]: 16.1 µM | TGI [47]: > 94.4 µM | GI50 [48]: 5.81 µM | TGI [48]: 39.9 µM | GI50 [49]: 19.4 µM | TGI [49]: > 100 µM | GI50 [50]: 6.89 µM | TGI [50]: > 100 µM | GI50 [51]: 10.1 µM | TGI [51]: > 93.4 µM | GI50 [52]: 3.51 µM | TGI [52]: > 100 µM | GI50 [53]: 2.35 µM | TGI [53]: 7.87 µM | GI50 [54]: 10.7 µM | TGI [54]: > 51.8 µM | GI50 [55]: 1.84 µM | TGI [55]: 11.9 µM | GI50 [56]: 1.76 µM | TGI [56]: > 100 µM | GI50 [57]: 12.9 µM | TGI [57]: > 100 µM
